Biological target: T1, Cholesteryl ester transfer protein (Homo sapiens, UniProt P11597)
T1 sequence (P11597 whole entry): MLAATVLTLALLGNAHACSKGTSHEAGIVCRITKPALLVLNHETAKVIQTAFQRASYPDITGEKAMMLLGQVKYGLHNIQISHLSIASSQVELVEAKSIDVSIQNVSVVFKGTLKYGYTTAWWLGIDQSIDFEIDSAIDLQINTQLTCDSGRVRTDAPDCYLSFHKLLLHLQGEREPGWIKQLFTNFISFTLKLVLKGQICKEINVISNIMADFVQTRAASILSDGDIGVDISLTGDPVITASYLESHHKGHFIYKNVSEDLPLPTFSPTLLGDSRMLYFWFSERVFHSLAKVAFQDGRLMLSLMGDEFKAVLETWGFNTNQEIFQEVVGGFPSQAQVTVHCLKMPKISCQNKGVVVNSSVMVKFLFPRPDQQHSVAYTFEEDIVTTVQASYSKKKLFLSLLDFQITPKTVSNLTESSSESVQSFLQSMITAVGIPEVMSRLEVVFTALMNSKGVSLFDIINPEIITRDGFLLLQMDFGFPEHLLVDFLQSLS
Test: Inhibition of CETP-mediated transfer of [3H]cholesteryl ester from HDL donar particles to LDL acceptor particles

IC50: 45 nM
Structure (SMILES): OC(CN1c2cccc(-c3cccc(OC(F)(F)F)c3)c2CCC1c1cccc(OC(F)(F)C(F)F)c1)C(F)(F)F (racemic)
